Measurements as given in ChEMBL document CHEMBL1201862, “PubChem BioAssay data set” (2004).
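1) Cells in 96-well plates. 2) Compound, 48 h, 5 concentrations. 3) Linear interpolation between surrounding doses. 4) Unreached endpoint = highest concentration. GI50 marks 50% less growth.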 Calls of active or inactive are those of the source. No stated cut-off is given here; in the data, active = GI50 up to about 1.1 µM and inactive = higher.

What was measured:
Experiment in all cases: inhibition of tumour cell growth, NCI panel, 48 h
[1] = system: NCI-H460
[2] = system: HCT-15
[3] = system: TK-10
[4] = system: DU-145
[5] = system: LOX IMVI
[6] = system: U-251
[7] = system: HL-60
[8] = system: NCI-H522
[9] = system: NCI-H226
[10] = system: EKVX
[11] = system: SK-MEL-28
[12] = system: IGROV-1
[13] = system: SF-268
[14] = system: MDA-N
[15] = system: COLO 205
[16] = system: ACHN
[17] = system: KM12
[18] = system: SK-OV-3
[19] = system: SN12C
[20] = system: CCRF-CEM

| Compound | GI50 [1] | GI50 [2] | GI50 [3] | GI50 [4] | GI50 [5] | GI50 [6] | GI50 [7] | GI50 [8] | GI50 [9] | GI50 [10] | GI50 [11] | GI50 [12] | GI50 [13] | GI50 [14] | GI50 [15] | GI50 [16] | GI50 [17] | GI50 [18] | GI50 [19] | GI50 [20] |
| --- | --- | --- | --- | --- | --- | --- | --- | --- | --- | --- | --- | --- | --- | --- | --- | --- | --- | --- | --- | --- |
| CN1CCc2c(sc3ncn(Nc4ccc(Cl)cc4)c(=N)c23)C1 | > 100 µM (inactive) | > 100 µM | > 100 µM (inactive) | > 100 µM (inactive) | > 100 µM (inactive) | > 100 µM (inactive) | > 100 µM (inactive) | > 100 µM (inactive) | > 100 µM (inactive) | > 100 µM (inactive) | > 100 µM (inactive) | > 100 µM (inactive) | > 100 µM (inactive) | > 100 µM (inactive) | > 100 µM (inactive) | > 100 µM (inactive) | > 100 µM (inactive) | > 100 µM (inactive) | > 100 µM (inactive) | > 100 µM (inactive) |
| C=C1C(=O)OC2/C=C(/C)C(OC(C)=O)C/C=C(\C)C(OC(=O)C3(C)OC3C)C(O)C12 (stereo not given) | > 100 µM (inactive) | 53.3 µM | > 100 µM (inactive) | > 100 µM (inactive) | 30.8 µM (inactive) | > 100 µM (inactive) | 30.3 µM (inactive) | 14.9 µM (inactive) | > 100 µM (inactive) | > 100 µM (inactive) | 71 µM (inactive) | > 100 µM (inactive) | > 100 µM (inactive) | > 100 µM (inactive) | 55.7 µM (inactive) | > 100 µM (inactive) | > 100 µM (inactive) | > 100 µM (inactive) | > 100 µM (inactive) | 34 µM (inactive) |
| O=c1[nH]c2c(Nc3c4ccccc4nc4ccccc34)c([N+](=O)[O-])c(Nc3c4ccccc4nc4ccccc34)c([N+](=O)[O-])c2[nH]1 | 1.33 µM (inactive) | 1.82 µM | 2.11 µM (inactive) | 2.67 µM (inactive) | 1.52 µM (inactive) | 2.33 µM (inactive) | 2.67 µM (inactive) | 1.09 µM (active) | 2.68 µM (inactive) | 1.82 µM (inactive) | 3.13 µM (inactive) | 1.69 µM (inactive) | 1.98 µM (inactive) | 2.36 µM (inactive) | 1.37 µM (inactive) | 0.6 µM (active) | 2.14 µM (inactive) | 3.03 µM (inactive) | 1.45 µM (inactive) | 0.855 µM (active) |
| Cc1cc(S(=O)(=O)Nc2nc(Nc3ccccc3)n[nH]2)c(SCC(=O)O)cc1Cl | > 100 µM (inactive) | > 100 µM | > 100 µM (inactive) | > 100 µM (inactive) | > 100 µM (inactive) | > 100 µM (inactive) | > 100 µM (inactive) | > 100 µM (inactive) | > 100 µM (inactive) | > 100 µM (inactive) | > 100 µM (inactive) | > 100 µM (inactive) | > 100 µM (inactive) | > 100 µM (inactive) | > 100 µM (inactive) | > 100 µM (inactive) | > 100 µM (inactive) | > 100 µM (inactive) | > 100 µM (inactive) | > 100 µM (inactive) |
| CCOC(=O)C1=C(C)N(C)C23OC4(C(=O)OC)CC2c2ccccc2C1N3C4=O (stereo not given) | 20 µM (inactive) | 63.7 µM | > 100 µM (inactive) | > 100 µM (inactive) | > 100 µM (inactive) | > 100 µM (inactive) | 24.6 µM (inactive) | 37.4 µM (inactive) | > 100 µM (inactive) | > 100 µM (inactive) | > 100 µM (inactive) | > 100 µM (inactive) | > 100 µM (inactive) | 14.2 µM (inactive) | > 100 µM (inactive) | > 100 µM (inactive) | 84.5 µM (inactive) | > 100 µM (inactive) | 79.3 µM (inactive) | 79.6 µM (inactive) |
| CCNC(C)(C)C(SS)c1ccc(Br)cc1 (stereo not given) | 31.1 µM (inactive) | > 100 µM | 53.3 µM (inactive) | > 100 µM (inactive) | 26.1 µM (inactive) | 44.3 µM (inactive) | 21.9 µM (inactive) | 18.4 µM (inactive) | > 100 µM (inactive) | > 100 µM (inactive) | > 100 µM (inactive) | > 100 µM (inactive) | 60.8 µM (inactive) | 45.6 µM (inactive) | 62.1 µM (inactive) | > 100 µM (inactive) | > 100 µM (inactive) | > 100 µM (inactive) | 32.6 µM (inactive) | 20.3 µM (inactive) |
| O=C(CC(O)(C(F)(F)F)C(F)(F)F)c1cc(CC(=O)C(O)(C(F)(F)F)C(F)(F)F)cc(CC(=O)C(O)(C(F)(F)F)C(F)(F)F)c1 | 0.454 µM (active) | 0.971 µM | 2.4 µM (inactive) | 1.97 µM (inactive) | 1.14 µM (inactive) | 1.54 µM (inactive) | > 10 µM (inactive) | 1.14 µM (inactive) | 3.01 µM (inactive) | 2.24 µM (inactive) | 1.64 µM (inactive) | 1.65 µM (inactive) | 2.67 µM (inactive) | 2.64 µM (inactive) | 1.61 µM (inactive) | 0.802 µM (active) | 0.512 µM (active) | 2.14 µM (inactive) | 1.41 µM (inactive) | > 10 µM (inactive) |
